Measured values reported in US12404269B2, “Aminoquinazolinone and aminoisoquinolinone derivatives and application thereof” (ZHEJIANG UNIVERSITY, priority 2018, dated 2025).

Assays:
[1] = target: T1, PI3Kδ (Homo sapiens, UniProt O00329); assay: PI3Kδ molecular activity test (ADP-GLO); type: biochemical; settings: recombinant protein
T1 construct: purchased Carna Bioscience
Method: (§1) Instrument: ELISA Reader Envision™ (PerkinElmer, USA)
(§2) Materials: Human recombinant PI3K and PI3Kδ proteins, purchased from Carna Bioscience; ADP-GLO kit, purchased from Promega.
(§3) Take the PI3Kα Molecular Activity Test as an Example to Describe the Text Method of the PI3K Subtypes
(§4) PI3K-α recombinant protein and substrate ATP were diluted with kinase reaction buffer (50 mM Tris-HCl, pH 7.4, 2.1 mM DTT, 0.05% Tween-20, 10 mM MgCl2). […] The specific reaction system was 2% of DMSO, 0.8 ng/μL PI3K-α, and 100 μM ATP, the positive compound control groups and control wells were set, and there were 3 multiple-wells for each concentration of each sample. After incubating for 2 hours at room temperature, ADP-GLO Reagent and Kinase Detection Reagent were added respectively, and then Envision™ was used to detect the […] readings. The activity rate of the samples were calculated by the sample readings, and the calculation formula was: activity rate=(ODcompound−ODcontrol)/(ODDMSO−ODcontro) ×100%.

[2] = target: T2, PI3Kα (Homo sapiens, UniProt P42336); assay: PI3Kα molecular activity test (ADP-GLO); type: biochemical; settings: for Selectivity (PI3Kδ IC50/PI3KαIC50): PI3Kδ IC50/PI3Kα IC50; for IC50: recombinant protein, 100 μM ATP, 2 hours at room temperature
T2 construct: purchased Carna Bioscience
T2 sequence (P42336 whole entry): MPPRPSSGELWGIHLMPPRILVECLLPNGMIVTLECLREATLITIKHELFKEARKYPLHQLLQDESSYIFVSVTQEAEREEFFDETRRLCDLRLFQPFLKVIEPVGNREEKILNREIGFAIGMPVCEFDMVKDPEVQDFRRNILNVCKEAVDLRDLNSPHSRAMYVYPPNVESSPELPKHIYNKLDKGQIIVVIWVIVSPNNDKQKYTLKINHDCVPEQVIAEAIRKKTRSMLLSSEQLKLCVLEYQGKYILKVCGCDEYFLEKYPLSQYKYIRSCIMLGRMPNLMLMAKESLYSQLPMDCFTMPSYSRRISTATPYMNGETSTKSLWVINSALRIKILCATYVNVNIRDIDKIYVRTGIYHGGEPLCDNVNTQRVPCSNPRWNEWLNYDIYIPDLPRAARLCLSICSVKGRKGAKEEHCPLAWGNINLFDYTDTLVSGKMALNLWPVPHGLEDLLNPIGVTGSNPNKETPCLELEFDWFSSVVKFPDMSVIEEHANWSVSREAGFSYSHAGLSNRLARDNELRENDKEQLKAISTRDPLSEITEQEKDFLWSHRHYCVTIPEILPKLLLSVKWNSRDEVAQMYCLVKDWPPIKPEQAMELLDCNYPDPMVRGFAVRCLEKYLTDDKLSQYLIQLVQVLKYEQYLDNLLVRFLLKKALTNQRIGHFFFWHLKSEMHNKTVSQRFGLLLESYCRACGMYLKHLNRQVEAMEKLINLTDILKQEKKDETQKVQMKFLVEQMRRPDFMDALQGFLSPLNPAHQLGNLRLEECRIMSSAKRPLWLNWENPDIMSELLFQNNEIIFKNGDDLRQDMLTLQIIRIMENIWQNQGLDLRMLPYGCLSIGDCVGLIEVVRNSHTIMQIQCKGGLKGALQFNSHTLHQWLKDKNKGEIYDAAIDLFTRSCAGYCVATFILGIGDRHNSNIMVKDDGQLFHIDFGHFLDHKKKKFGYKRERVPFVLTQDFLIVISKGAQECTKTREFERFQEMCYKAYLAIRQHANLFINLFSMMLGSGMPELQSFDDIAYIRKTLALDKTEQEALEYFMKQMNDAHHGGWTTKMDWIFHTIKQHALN
T2 sequence (P27986 whole entry partner): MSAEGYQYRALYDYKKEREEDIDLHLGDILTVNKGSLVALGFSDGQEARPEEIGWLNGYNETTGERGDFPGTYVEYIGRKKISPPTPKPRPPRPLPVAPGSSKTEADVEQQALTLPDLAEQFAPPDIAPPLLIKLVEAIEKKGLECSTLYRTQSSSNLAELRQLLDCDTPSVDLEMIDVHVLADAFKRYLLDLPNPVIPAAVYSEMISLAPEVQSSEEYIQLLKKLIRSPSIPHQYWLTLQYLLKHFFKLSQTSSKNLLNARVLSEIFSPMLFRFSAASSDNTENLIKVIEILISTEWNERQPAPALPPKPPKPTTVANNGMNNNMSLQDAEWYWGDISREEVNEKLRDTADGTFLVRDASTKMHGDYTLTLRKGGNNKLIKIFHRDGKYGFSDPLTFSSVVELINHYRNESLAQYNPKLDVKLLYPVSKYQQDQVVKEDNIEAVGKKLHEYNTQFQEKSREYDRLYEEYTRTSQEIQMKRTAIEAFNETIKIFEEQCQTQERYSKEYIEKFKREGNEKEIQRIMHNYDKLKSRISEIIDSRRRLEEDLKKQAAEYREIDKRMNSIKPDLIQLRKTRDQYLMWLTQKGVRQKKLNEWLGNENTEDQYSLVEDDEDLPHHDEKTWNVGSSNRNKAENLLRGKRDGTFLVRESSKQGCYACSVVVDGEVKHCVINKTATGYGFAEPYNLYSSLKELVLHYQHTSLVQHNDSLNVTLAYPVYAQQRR
Method: as §1, §2, §3, §4

[3] = system: ZR-75-1 (PTEN loss); assay: Tumor cell proliferation, CCK8 method, ZR-75-1; type: cell-based; settings: Homo sapiens; CCK8, ZR-75-1
Method: (§5) The IC50 value was calculated using Graphpad Prism V5.0 software.

[4] = system: SW48 (PIK3CA mut); assay: Tumor cell proliferation, CCK8 method, SW48; type: cell-based; settings: Homo sapiens; CCK8, SW48; read-out: SW48 (PIK3CA mut) proliferation IC50
Method: as §5

[5] = system: MCF7 (PIK3CA mut); assay: Tumor cell proliferation, CCK8 method, MCF7; type: cell-based, human; settings: Homo sapiens; CCK8, MCF7; read-out: MCF7 (PIK3CA mut) proliferation IC50
Method: as §5

[6] = system: KPL4 (PIK3CA mut); assay: Tumor cell proliferation, CCK8 method, KPL4; type: cell-based; settings: CCK8, KPL4; read-out: KPL4 (PIK3CA mut) proliferation IC50
Method: as §5

T1 sequence (O00329 whole entry): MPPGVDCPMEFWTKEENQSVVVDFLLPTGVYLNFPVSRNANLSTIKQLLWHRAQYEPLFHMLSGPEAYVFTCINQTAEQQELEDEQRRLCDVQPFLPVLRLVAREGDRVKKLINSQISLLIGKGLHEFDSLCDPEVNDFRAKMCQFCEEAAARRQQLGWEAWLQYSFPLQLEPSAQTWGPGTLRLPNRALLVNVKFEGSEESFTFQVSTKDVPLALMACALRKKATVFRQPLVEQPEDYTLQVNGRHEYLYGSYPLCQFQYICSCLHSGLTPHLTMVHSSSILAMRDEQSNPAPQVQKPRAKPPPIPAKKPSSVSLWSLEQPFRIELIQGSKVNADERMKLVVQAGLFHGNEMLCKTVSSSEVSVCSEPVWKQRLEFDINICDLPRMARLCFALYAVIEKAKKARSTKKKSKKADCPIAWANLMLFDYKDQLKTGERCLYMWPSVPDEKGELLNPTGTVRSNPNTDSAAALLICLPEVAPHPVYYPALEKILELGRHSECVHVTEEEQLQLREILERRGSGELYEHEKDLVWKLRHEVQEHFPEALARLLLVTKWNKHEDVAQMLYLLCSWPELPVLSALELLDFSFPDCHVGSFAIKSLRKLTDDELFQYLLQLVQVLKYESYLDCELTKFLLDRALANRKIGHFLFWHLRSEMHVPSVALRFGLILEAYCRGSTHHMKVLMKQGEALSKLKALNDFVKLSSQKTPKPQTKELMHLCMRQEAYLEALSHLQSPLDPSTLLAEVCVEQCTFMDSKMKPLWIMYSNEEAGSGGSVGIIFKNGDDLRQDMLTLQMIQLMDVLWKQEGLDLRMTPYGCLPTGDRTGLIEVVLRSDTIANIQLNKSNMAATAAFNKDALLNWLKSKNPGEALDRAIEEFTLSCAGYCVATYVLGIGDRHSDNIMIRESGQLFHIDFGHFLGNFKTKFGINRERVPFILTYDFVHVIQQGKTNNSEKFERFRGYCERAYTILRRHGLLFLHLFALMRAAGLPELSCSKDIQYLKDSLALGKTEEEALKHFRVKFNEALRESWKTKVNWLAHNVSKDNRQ
T1 sequence (P27986 whole entry partner): as the sequence (P27986 whole entry partner) above

| Compound | IC50 [1] [nM] | Selectivity (PI3Kδ IC50/PI3KαIC50) [2] | IC50 [2] [nM] | IC50 [3] [nM] | IC50 [4] [nM] | IC50 [5] [nM] | IC50 [6] [nM] |
| --- | --- | --- | --- | --- | --- | --- | --- |
| CCn1c(NC(=O)c2cnc(N)nc2)nc2c(OC)c(OC[C@H](O)CN3CCOCC3)ccc2c1=O [8b-28, (R)-2-amino-N-(3-ethyl-7-(2-hydroxy-3-morpholinopropoxy)-8-methoxy-4-oxo-3,4-dihydroquinazolin-2-yl) pyrimidine-5-carboxamide] | 200 to 1000 | II (“II” represents 5-10 times) | < 20 | 200 to 1000 | 20 to 200 | < 20 | 20 to 200 |
| CNC(=O)COc1ccc2c(=O)n(C)c(NC(=O)c3cnc(N)nc3)nc2c1OC [8a-4] | 20 to 200 | II (“II” represents 5-10 times) | < 20 | – | – | – | – |
| COc1c(OCCCC(N)=O)ccc2c(=O)n(C)c(NC(=O)c3cnc(N)nc3)nc12 [8a-9] | 20 to 200 | III (“III” represents >10 times) | < 20 | – | – | – | – |
| Cn1c(NC(=O)c2cnc(N)nc2)cc2c3c(ccc2c1=O)OCCOCCOCCOCCO3 [14a′-7] | 20 to 200 | II (“II” represents 5-10 times) | < 20 | – | – | – | – |
| Cn1c(NC(=O)c2cnc(N)nc2)cc2c3c(ccc2c1=O)OCCCCO3 [14a′-4] | 20 to 200 | II (“II” represents 5-10 times) | < 20 | – | – | – | – |
| CCn1c(NC(=O)c2cnc(N)nc2)cc2c3c(ccc2c1=O)OCCCCO3 [14b′-4] | 20 to 200 | I (“I” represents <5 times) | 20 to 200 | – | – | – | – |
| COc1c(OCCC(N)=O)ccc2c(=O)n(C(C)C)c(NC(=O)c3cnc(N)nc3)nc12 [8c-3] | 20 to 200 | I (“I” represents <5 times) | 20 to 200 | – | – | – | – |
| COc1c(O)ccc2c(=O)n(CC(F)F)c(NC(=O)c3cnc(N)nc3)nc12 [7f, 2-amino-N-(3-difluoroethyl-7-hydroxy-8-methoxy-4-oxo-3,4-dihydroquinazolin-2-yl) pyrimidine-5-carboxamide] | 20 to 200 | I (“I” represents <5 times) | 20 to 200 | – | – | – | – |
| Cn1c(NC(=O)c2cnc(N)nc2)cc2c3c(ccc2c1=O)OCCOCCOCCO3 [14a′-6] | 20 to 200 | II (“II” represents 5-10 times) | < 20 | – | – | – | – |
| COc1c(OCC(=O)N2CCOCC2)ccc2c(=O)n(C)c(NC(=O)c3cnc(N)nc3)nc12 [8a-8] | 20 to 200 | II (“II” represents 5-10 times) | < 20 | – | – | – | – |
| COc1c(OCCCN2CCOCC2)ccc2c(=O)n(CC(F)F)c(NC(=O)c3cnc(N)nc3)nc12 [8f-1] | – | – | – | 200 to 1000 | 20 to 200 | < 20 | 20 to 200 |
| Cn1c(NC(=O)c2cnc(N)nc2)cc2c3c(ccc2c1=O)OCCOCCO3 [14a′-5] | 20 to 200 | II (“II” represents 5-10 times) | < 20 | – | – | – | – |
| COc1c(OCCCN2CCOCC2)ccc2c(=O)n(C)c(NC(=O)c3cncnc3)nc12 [8a-14] | 20 to 200 | II (“II” represents 5-10 times) | < 20 | – | – | – | – |
| CCn1c(NC(=O)c2cnc(N)nc2)nc2c(OC(F)F)c(OCCCN3CCOCC3)ccc2c1=O [8g-1] | – | – | – | 200 to 1000 | 20 to 200 | < 20 | 20 to 200 |
| COc1c(OCCCN2CCOCC2)ccc2c(=O)n(C)c(NC(=O)c3cncnc3)cc12 [8a′-8] | 20 to 200 | III (“III” represents >10 times) | < 20 | – | – | – | – |
| CCn1c(NC(=O)c2cnc(N)nc2)nc2c(OC)c(OCCC(N)=O)ccc2c1=O [8b-3] | 20 to 200 | III (“III” represents >10 times) | < 20 | – | – | – | – |
| CCn1c(NC(=O)c2cnc(N)nc2)cc2c(OC)c(OCCC(N)=O)ccc2c1=O [8b′-3] | 20 to 200 | III (“III” represents >10 times) | < 20 | – | – | – | – |
| COc1c(O)ccc2c(=O)n(CC(F)(F)F)c(NC(=O)c3cnc(N)nc3)nc12 [7e, 2-amino-N-(3-trifluoroethyl-7-hydroxy-8-methoxy-4-oxo-3,4-dihydroquinazolin-2-yl) pyrimidine-5-carboxamide] | 20 to 200 | I (“I” represents <5 times) | 20 to 200 | – | – | – | – |
| COc1c(OCC(=O)N(C)C)ccc2c(=O)n(C)c(NC(=O)c3cnc(N)nc3)nc12 [8a-5] | 20 to 200 | II (“II” represents 5-10 times) | < 20 | – | – | – | – |
| Cc1nc(NC(=O)N2CCC[C@H]2C(N)=O)sc1-c1ccnc(C(C)(C)C(F)(F)F)c1 [Alpelisib, reference compound] | – | – | – | 20 to 200 | 20 to 200 | < 20 | 20 to 200 |

Further lines, results first:

| IC50 [1] [nM] | Selectivity (PI3Kδ IC50/PI3KαIC50) [2] | IC50 [2] [nM] | IC50 [3] [nM] | IC50 [4] [nM] | IC50 [5] [nM] | IC50 [6] [nM] | Compound |
| --- | --- | --- | --- | --- | --- | --- | --- |
| 20 to 200 | II (“II” represents 5-10 times) | < 20 | – | – | – | – | Cn1c(NC(=O)c2cnc(N)nc2)cc2c3c(ccc2c1=O)OCCO3 [14a′-2] |
| 20 to 200 | II (“II” represents 5-10 times) | < 20 | 20 to 200 | < 20 | < 20 | 20 to 200 | CCn1c(NC(=O)c2cnc(N)nc2)nc2c(OC)c(O)ccc2c1=O [7b, 2-amino-N-(3-ethyl-7-hydroxy-8-methoxy-4-oxo-3 ,4-dihydroquinazolin-2-yl) pyrimidine-5-carboxamide] |
| 20 to 200 | III (“III” represents >10 times) | < 20 | 20 to 200 | 20 to 200 | < 20 | 20 to 200 | CCn1c(NC(=O)c2cnc(N)nc2)cc2c(OC)c(OCC(N)=O)ccc2c1=O [8b′-2] |
| 20 to 200 | I (“I” represents <5 times) | 20 to 200 | – | – | – | – | COc1c(OCC(N)=O)ccc2c(=O)n(C3CC3)c(NC(=O)c3cnc(N)nc3)nc12 [8d-2] |
| 20 to 200 | II (“II” represents 5-10 times) | < 20 | – | – | – | – | COc1c(OCCCN2CCOCC2)ccc2c(=O)n(C)c(NC(=O)c3ccc(N)nc3)nc12 [8a-16] |
| 20 to 200 | III (“III” represents >10 times) | < 20 | – | – | – | – | COc1c(OCCCN2CCOCC2)ccc2c(=O)n(C)c(NC(=O)c3ccnnc3)cc12 [8a′-9] |
| 20 to 200 | II (“II” represents 5-10 times) | < 20 | – | – | – | – | COc1c(OCCCN2CCOCC2)ccc2c(=O)n(C)c(NC(=O)c3ccnnc3)nc12 [8a-15] |
| 20 to 200 | I (“I” represents <5 times) | 20 to 200 | – | – | – | – | COc1c(OCC(N)=O)ccc2c(=O)n(C(C)C)c(NC(=O)c3cnc(N)nc3)nc12 [8c-2] |
| 20 to 200 | III (“III” represents >10 times) | < 20 | – | – | – | – | COc1c(O)ccc2c(=O)n(C)c(NC(=O)c3cnc(N)nc3)nc12 [7a, 2-Amino-N-(8-methoxy-3-methyl-7-hydroxy-4-oxo-3,4-dihydroquinazolinone-2-yl) pyrimidine-5-carboxamide] |
| < 20 | I (“I” represents <5 times) | < 20 | – | – | – | – | CCn1c(NC(=O)c2cnc(N)nc2)cc2c3c(ccc2c1=O)OCCO3 [14b′-2] |
| < 20 | II (“II” represents 5-10 times) | 20 to 200 | – | – | – | – | CCn1c(NC(=O)c2cncnc2)nc2c(OC)c(OCCCN3CCOCC3)ccc2c1=O [8b-14] |
